# From US20100129800A1, “POLYMERS AND THEIR USE AS FLUORESCENT LABELS” (priority 2007, published 2010)
# Assay: Fluorescence properties of the new compounds (excitation and emission wavelengths)
# Assay type: physicochemical
# Settings: free compound
Compound,Fluorescence Excitation (nm),Fluorescence emission (nm)
"CC(=O)NC1CC(C(=O)NC2CC(C(N)=O)N(C(=O)CNC(=O)c3c4ccccc4nc4c3[nH]c3ccccc34)C2)N(C(=O)CNC(=O)c2c3ccccc3nc3ccccc23)C1 (centres unmarked) [Example 55, 10H-Indolo[3,2-b]quinoline-11-carboxylic acid (2-{4-[4(4-acetylamino-1-{2-[(acridine-9-carbonyl)-amino]-acetyl}-pyrrolidine-2-carbonyl)-amino]-2-carbamoyl-pyrrolidin-1-yl}-2-oxo-ethyl)-amide]",308,500
"CC(=O)NC1CC(C(=O)NC2CC(C(=O)NC3CC(C(N)=O)N(C(=O)CNC(=O)c4c5ccccc5nc5ccccc45)C3)N(C(=O)CNC(=O)c3c4ccccc4nc4ccccc34)C2)N(C(=O)CNC(=O)c2c3ccccc3nc3ccccc23)C1 (centres unmarked) [Example 56, N^4-Acetyl-4-amino-{2-(acridine-9-carboxamide)acetyl}prolinyl-4-amino-{2-(acridine-9-carboxamide)acetyl}prolinyl-4-amino-{2-(acridine-9-carboxamide)acetyl}prolinamide]",275,440
"CC(=O)NC1CC(C(=O)NC2CC(C(=O)NC3CC(C(N)=O)N(C(=O)CNC(=O)c4c5ccccc5nc5c4[nH]c4ccccc45)C3)N(C(=O)CNC(=O)c3c4ccccc4nc4c3[nH]c3ccccc34)C2)N(C(=O)CNC(=O)c2c3ccccc3nc3c2[nH]c2ccccc23)C1 (centres unmarked) [Example 57, N^4-Acetyl-4-amino-{2-(10H-indolo[3,2-b]quinoline-11-carboxamide)acetyl}prolinyl-4-amino-{2-(10H-indolo[3,2-b]quinoline-11-carboxamide)acetyl}prolinyl-{2-(10H-indolo[3,2-b]quinoline-11-carboxamide)acetyl}prolinamide]",348,505
"CC(=O)NC1CC(C(=O)NC2CC(C(=O)NC3CC(C(N)=O)N(C(=O)CNC(=O)c4c5ccccc5nc5ccccc45)C3)N(C(=O)CNC(=O)c3c4ccccc4nc4c3[nH]c3ccccc34)C2)N(C(=O)CNC(=O)c2c3ccccc3nc3ccccc23)C1 (centres unmarked) [Example 58, N^4-Acetyl-4-amino-{2-(acridine-9-carboxamide)acetyl}prolinyl-4-amino-{2-(10H-indolo[3,2-b]quinoline-11-carboxamide)acetyl}proliny-4-amino-{2-(acridine-9-carboxamide)acetyl}prolinamide]",275,503
"CC(=O)N[C@H]1C[C@@H](C(=O)N[C@H]2C[C@@H](C(=O)N[C@H]3C[C@@H](C(N)=O)N(C(=O)CNC(=O)c4c5ccccc5nc5ccccc45)C3)N(C(=O)CNC(=O)c3c4ccccc4nc4ccccc34)C2)N(C(=O)CNC(=O)c2c3ccccc3nc3c2[nH]c2ccccc23)C1 [Example 60, N^4-Acetyl-4-amino-{2-(10H-indolo[3,2-b]quinoline-11-carboxamide)acetyl}prolinyl-4-amino-{2-(acridine-9-carboxamide)acetyl}prolinyl-4-amino-{2-(acridine-9-carboxamide)acetyl}prolinamide]",309,456
"CC(=O)NC1CC(C(=O)NC2CC(C(=O)NC3CC(C(N)=O)N(C(=O)CNC(=O)c4c5ccccc5nc5c4[nH]c4ccccc45)C3)N(C(=O)CNC(=O)c3c4ccccc4nc4ccccc34)C2)N(C(=O)CNC(=O)c2c3ccccc3nc3c2[nH]c2ccccc23)C1 (centres unmarked) [Example 61, N^4-Acetyl-4-amino-{2-(10H-indolo[3,2-b]quinoline-11-carboxamide)acetyl}prolinyl-4-amino-{2-(acridine-9-carboxamide)acetyl}prolinyl-4-amino-{2-(10H-indolo[3,2-b]quinoline-11-carboxamide)acetyl}prolinamide]",348,488
"CC(=O)N1CC(NC(=O)CNC(=O)c2c3ccccc3nc3ccccc23)C[C@H]1C(=O)N1CC(NC(=O)CNC(=O)c2c3ccccc3nc3c2[nH]c2ccccc23)C[C@H]1C(=O)N1CC(NC(=O)CNC(=O)c2c3ccccc3nc3c2[nH]c2ccccc23)C[C@H]1C(N)=O (some centres unmarked) [Example 63, N^4-Acetyl-4-amino-{2-(acridine-9-carboxamide)acetyl}prolinyl-4-amino-{2-(10H-indolo[3,2-b]quinoline-11-carboxamide)acetyl}proliny-4-amino-{2-(10H-indolo[3,2-b]quinoline-11-carboxamide)acetyl}prolinamide]",272,503
CC(=O)NC1CC(C(=O)NC2CC(C(=O)NC3CC(C(=O)NC4CC(C(=O)NC5CC(C(N)=O)N(C(=O)CNC(=O)c6cc(-c7ccccc7)nc7ccccc67)C5)N(C(C)=O)C4)N(C(=O)CNC(=O)c4c5ccccc5nc5ccccc45)C3)N(C(C)=O)C2)N(C(=O)CNC(=O)c2c3ccccc3nc3c2[nH]c2ccccc23)C1 (centres unmarked) [Example 64],347,488
"CC(=O)NC1CC(C(=O)NC2CC(C(=O)NC3CC(C(=O)NC4CC(C(=O)NC5CC(C(N)=O)N(C(=O)CNC(=O)c6c7ccccc7nc7c6[nH]c6ccccc67)C5)N(C(C)=O)C4)N(C(=O)CNC(=O)c4cc(-c5ccccc5)nc5ccccc45)C3)N(C(C)=O)C2)N(C(=O)CNC(=O)c2c3ccccc3nc3ccccc23)C1 (centres unmarked) [Example 65, N^4-Acetyl-4-amino-{2-(acridine-9-carboxamide)acetyl}prolinyl-4-aminoprolinyl-4-amino-[(2-phenyl-quinoline-4-carboxamide)acetyl]prolinamide-4-aminoprolinyl-4-amino-{2-(10H-indolo[3,2-b]quinoline-11-carboxamide)acetyl}prolinamide]",249,442
"CC(=O)NC1CC(C(=O)NC2CC(C(=O)NC3CC(C(=O)NC4CC(C(=O)NC5CC(C(=O)NC6CC(C(=O)NC7CC(C(N)=O)N(C(=O)CNC(=O)c8cc(-c9ccccc9)nc9ccccc89)C7)N(C(C)=O)C6)N(C(C)=O)C5)N(C(=O)CNC(=O)c5c6ccccc6nc6ccccc56)C4)N(C(C)=O)C3)N(C(C)=O)C2)N(C(=O)CNC(=O)c2c3ccccc3nc3c2[nH]c2ccccc23)C1 (centres unmarked) [Example 66, N^4-Acetyl-4-amino-{2-(10H-indolo[3,2-b]quinoline-11-carboxamide)acetyl}prolinyl-4-aminoprolinyl-4-aminoprolinyl-4-amino-{2-(acridine-9-carboxamide)acetyl}prolinyl-4-aminoprolinyl-4-aminoprolinyl-4-amino-[(2-phenyl-quinoline-4-carboxamide)acetyl]prolinamide]",269,432
CC(=O)NC1CC(C(=O)NC2CC(C(=O)NC3CC(C(=O)NC4CC(C(=O)NC5CC(C(=O)NC6CC(C(=O)NC7CC(C(N)=O)N(C(=O)CNC(=O)c8c9ccccc9nc9c8[nH]c8ccccc89)C7)N(C(C)=O)C6)N(C(C)=O)C5)N(C(=O)CNC(=O)c5cc(-c6ccccc6)nc6ccccc56)C4)N(C(C)=O)C3)N(C(C)=O)C2)N(C(=O)CNC(=O)c2c3ccccc3nc3ccccc23)C1 (centres unmarked) [Example 67],265,451
"CC(=O)N[C@@H](CCCNC(=O)CNC(=O)c1c2ccccc2nc2ccccc12)C(=O)N[C@@H](CCCNC(=O)CNC(=O)c1c2ccccc2nc2ccccc12)C(=O)N[C@@H](CCCNC(=O)CNC(=O)c1c2ccccc2nc2ccccc12)C(N)=O [Example 68, N^4-Acetyl-5-N-{2-(acridine-9-carboxamide)acetyl}ornithinyl-5-N-{2-(acridine-9-carboxamide)acetyl}ornithinyl-5-N-{2-(acridine-9-carboxamide)acetyl}ornithinamide]",360,435
"CC(=O)N[C@@H](CCCNC(=O)CNC(=O)c1c2ccccc2nc2ccccc12)C(=O)N[C@@H](CCCNC(=O)CNC(=O)c1c2ccccc2nc2c1[nH]c1ccccc12)C(=O)N[C@@H](CCCNC(=O)CNC(=O)c1c2ccccc2nc2ccccc12)C(N)=O [Example 69, N^4-Acetyl-5-N-{2-(acridine-9-carboxamide)acetyl}ornithinyl-5-N-{2-(10H-indolo[3,2-b]quinoline-11-carboxamide)acetyl}ornithinyl-5-N-{2-(acridine-9-carboxamide)acetyl}ornithinamide]",357,441
"CC(=O)N[C@@H](CCCNC(=O)CNC(=O)c1c2ccccc2nc2ccccc12)C(=O)N[C@@H](CCCNC(=O)CNC(=O)c1c2ccccc2nc2c1[nH]c1ccccc12)C(=O)N[C@@H](CCCNC(=O)CNC(=O)c1c2ccccc2nc2c1[nH]c1ccccc12)C(N)=O [Example 70, N^4-Acetyl-5-N-{2-(acridine-9-carboxamide)acetyl}ornithinyl-5-N-{2-(10H-indolo[3,2-b]quinoline-11-carboxamide)acetyl}ornithinyl-5-N-{2-(10H-indolo[3,2-b]quinoline-11-carboxamide)acetyl}ornithinamide]",248,–
"CC(=O)N[C@@H](CCCNC(=O)CNC(=O)c1c2ccccc2nc2c1[nH]c1ccccc12)C(=O)N[C@@H](CCCNC(=O)CNC(=O)c1c2ccccc2nc2c1[nH]c1ccccc12)C(=O)N[C@@H](CCCNC(=O)CNC(=O)c1c2ccccc2nc2c1[nH]c1ccccc12)C(N)=O [Example 71, N^4-Acetyl-5-N-{2-(10H-indolo[3,2-b]quinoline-11-carboxamide)acetyl}ornithinyl-5-N-{2-(10H-indolo[3,2-b]quinoline-11-carboxamide)acetyl}ornithinyl-5-N-{2-(10H-indolo[3,2-b]quinoline-11-carboxamide)acetyl}ornithinamide]",338,466
